Data on seven molecules can be found in patent US20200323991A1, “PBD CONJUGATES FOR TREATING DISEASES” (ENDOCYTE, INC., priority 2016, published 2020).

Where two headings read alike, the source gives them in different places.

The test system of one series is KB tumor. Briefly: Antitumor activity in large KB tumor model. The series is classed as in vivo, mice. As to conditions: once a week for two weeks. As to the method:
Female Balb/c nu/nu mice were fed ad libitum with folate-deficient chow (Harlan diet #TD01013) for the duration of the experiment. KB tumor cells were inoculated subcutaneously at the right flank of each mouse. Mice were dosed after the tumors reached an average of 100 and 180 mm^3 through the lateral tail vein under sterile conditions in a volume of […] of phosphate-buffered saline (PBS).
Growth of each s.c. tumor was followed by measuring the tumor two times per week. Tumors were measured in two perpendicular directions using Vernier calipers, and their volumes were calculated as 0.5×L×W^2, where L=measurement of longest axis in mm and W=measurement of axis perpendicular to L in mm.

In the next series the target is T1, folate receptor (Homo sapiens, UniProt P15328).
T1 construct: endogenous in cells; host or cells: KB cells
T1 sequence (P15328 25-234): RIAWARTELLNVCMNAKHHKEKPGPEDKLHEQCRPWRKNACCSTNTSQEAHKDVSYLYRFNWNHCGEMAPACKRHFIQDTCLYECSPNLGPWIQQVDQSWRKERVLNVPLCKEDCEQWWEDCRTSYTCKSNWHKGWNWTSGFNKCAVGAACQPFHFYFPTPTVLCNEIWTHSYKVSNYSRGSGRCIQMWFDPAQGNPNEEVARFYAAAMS
The experiment in a line: Relative affinity assay (displacement of [3H]FA bound to FR on KB cells). As to conditions: 100 nmol/L [3H]FA, 1 h at 37° C. The class given is binding. As to the method:
FR-positive KB cells were seeded in 24-well Falcon plates and allowed to form adherent monolayers (>90% confluent) overnight in FFRPMI/HIFCS. Spent incubation medium was replaced with FFRPMI supplemented with 10% HIFCS and containing 100 nmol/L of [^3H]FA in the absence and presence of increasing concentrations of unlabeled FA or the test conjugate. Cells were incubated for 1 h at 37° C. and then rinsed thrice with 0.5 mL PBS. Five hundred microliters of 1% SDS in PBS were added to each well; after 5 min, cell lysates were collected, transferred to individual vials containing 5 mL of scintillation cocktail, and then counted for radioactivity.
Cells exposed to only the [3H]FA in FFRPMI (no competitor) were designated as negative controls, whereas cells exposed to the [3H]FA plus 1 mmol/L unlabeled FA served as positive controls. Disintegrations per minute (DPM) measured in the latter samples (representing nonspecific binding of label) were subtracted from the DPM values from all samples.

The next series relates to Calf thymus DNA (CT-DNA). The experiment in a line: DNA crosslinking assay (ethidium bromide fluorescence). The class given is biochemical. How it is done: (§1) Calf thymus DNA (CT-DNA) was combined with increasing concentrations of Conjugate 1 (0.14 to 33.3 pM) or Conjugate 1+/− DTT. CT-DNA+Melphalan was used as a positive control and CT-DNA+DMSO was used as a negative control. These solutions were incubated at 37° C. for 2 hours. The solutions were then mixed with ethidium bromide and incubated for 2 hours at room temperature. Fluorescence (Ex: 535 nm, Em: 605 nm) from these samples was measured on the Fluoroskan II fluorimeter. Next, the samples were heated to 104° C. for 5 minutes, cooled on ice for 5 minutes, kept at RT for 15 minutes and fluorescence measured. % crosslinking of each sample was calculated using the fluorescence values from the positive and negative controls.
as §1, with “5 (1.1” for “1 (0.14”, “75” for “33.3”, “5+/−” for “1+/−”, “DTT.” for “DTT. CT-DNA+Melphalan was used as a positive control and CT-DNA+DMSO was used as a negative control.”

A further series has as its system MDA-MB231 cells. The experiment in a line: 3H-thymidine incorporation in MDA-MB231 cells. The class given is cell-based, human. As to conditions: MDA-MB-231 cells, 100 μM folic acid. How it is done:
MDA-MB231 (human breast cancer) cells were seeded in 12-well Falcon plates and allowed to form nearly confluent monolayers overnight in FFRPMI/HIFCS. Designated wells received medium containing 100μM folic acid (nontoxic FR blocker) and were used to determine the targeting specificity. Each well then received increasing concentrations of Conjugate 1 (n=4). Cells were pulsed for 2 h at 37° C., rinsed with medium, and then chased in fresh medium up to 72 h. Spent medium was aspirated and replaced with medium containing [3H]thymidine. Following a 2 h incubation, cells were washed with PBS and then treated with 5% trichloroacetic acid. The trichloroacetic acid was aspirated and cells were solubilized in 0.25 N sodium hydroxide. Each solubilized sample were transferred to scintillation vials containing Ecolume scintillation cocktail and counted in a liquid scintillation counter. Final results were expressed as the percentage of [3H]thymidine incorporation relative to untreated controls and IC50 were values calculated using GraphPad Prism software.

Series [1] concerns Endometrial PDX tumor (ST040). Briefly: In vivo activity against endometrial tumors, ST040. As to conditions: 15 mg/kg SIW for two weeks. Further details: species or system mice. How it is done:
Female Balb/c nu/nu mice were fed ad libitum with folate-deficient chow (Harlan diet #TD01013) for the duration of the experiment. Primary human Endometrial model ST040 fragments (2-4 mm in diameter) were inoculated subcutaneously at the right flank of each mouse. Mice were randomized into experimental groups of 7 mice each and test articles were injected through the lateral tail vein under sterile conditions in a volume of 200 μL of phosphate-buffered saline (PBS). These studies were performed at South Texas Accelerated Research Therapeutics, 4383 Medical Drive, San Antonio, Tex. 78229.
Growth of each s.c. tumor was followed by measuring the tumor two times per week until a volume of 1200 mm^3 was reached. Tumors were measured in two perpendicular directions using Vernier calipers, and their volumes were calculated as 0.5×L×W^2, where L=measurement of longest axis in mm and W=measurement of axis perpendicular to L in mm.

A further series has as its system ST070 ovarian PDX tumors. Briefly: In vivo activity against ovarian tumors, ST070. Further details: species or system mice. As to conditions: 15.0 mg/kg SIW for two weeks. As to the method:
(§2) Mice were maintained and tumor volumes were measures according to Method 3.
Primary human Ovarian model ST070 fragments (2-4 mm in diameter) were inoculated subcutaneously at the right flank of each mouse. Mice were randomized into experimental groups of 7 mice each and test articles were injected through the lateral tail vein under sterile conditions in a volume of 200 μL of phosphate-buffered saline (PBS).

Series [2] in a line: Toxicity in KB tumor bearing mice. The class given is in vivo. As to conditions: 0.5 μmol/kg, once a week for two weeks. How it is done: The percentage weight change of the test animals was determined on selected days post-tumor inoculation (PTI), and during dosing. The results were graphed.
For a further series, the system named is KB cells. The class given is cell-based, human. As to conditions: read-out: IC50 value, 3H-thymidine incorporation. How it is done:
The conjugates described herein were evaluated using an in vitro cytotoxicity assay that predicted the ability of the drug to inhibit the growth of the corresponding targeted cells, such as, but not limited to the following
It is to be understood that the choice of cell type can be made on the basis of the susceptibility of those selected cells to the drug that forms the conjugate, and the relative expression of the cell surface receptor or target antigen. The test conjugates were conjugates of a cell surface receptor or target antigen binding compound and PBD prodrugs, poly-PBD prodrugs, and mixed PBDs, as described herein. The test cells were exposed to varying concentrations of the conjugates, and optionally also in the absence or presence of at least a 100-fold excess of the unconjugated cell surface receptor or target antigen binding compound for competition studies to assess activity as being specific to the cell surface receptor or target antigen.
KB cells were seeded in individual 24-well Falcon plates and allowed to form nearly confluent monolayers overnight in folate free Roswell Park Memorial Institute (FFRPMI)/Heat-Inactivated Fetal Calf Serum (HIFCS). Thirty minutes prior to the addition of folate-conjugate, spent medium was aspirated from all wells and replaced with either fresh FFRPMI or FFRPMI supplemented with 100 μM folic acid. […] Cells were pulsed for 2 h at 37° C., rinsed 4 times with 0.5 mL of medium and then chased in 1 mL of fresh medium up to 72 h. Spent medium was aspirated from all wells and replaced with fresh medium containing 5 μCi/mL of ^3H-thymidine. Following a 2 h incubation at 37° C., cells were washed 3 times with 0.5 mL of PBS and then treated with 0.5 mL of ice-cold 5% trichloroacetic acid per well. After 15 min, the trichloroacetic acid was aspirated and the cells solubilized by the addition of 0.5 mL of 0.25 N sodium hydroxide for 15 min at room temperature. Four hundred and fifty […] of each solubilized sample were transferred to scintillation vials containing 3 mL of Ecolume scintillation cocktail and counted in a liquid scintillation counter. Final results were expressed as the percentage of ^3H-thymidine incorporation relative to untreated controls.

The next series relates to TNBC PDX tumor. The experiment in a line: In vivo activity against triple negative breast tumors (FIG. 38). Details: species or system mice. As to conditions: 1.0 μmol/kg SIW for two weeks. As to the method: as §2
Primary human TNBC model ST502 (2-4 mm in diameter) or primary human TNBC model ST738 (2-4 mm in diameter) were inoculated subcutaneously at the right flank of each mouse. Mice were randomized into experimental groups of 7 mice each and test articles were injected through the lateral tail vein under sterile conditions in a volume of 200 μL of phosphate-buffered saline (PBS).

Setting [3] is: with excess folate (100 μM folic acid).
[4] abbreviates: without excess folate, 2 h pulse, chase up to 72 h.

In turn, `C=C1C[C@H]2C=Nc3cc(OCCCCCOc4cc5c(cc4OC)C(=O)N4CC(=C)C[C@H]4[C@H](O)N5C(=O)OCC(C)SSC[C@H](NC(=O)[C@H](CC(=O)O)NC(=O)[C@H](CC(=O)O)NC(=O)[C@H](CCCNC(=N)N)NC(=O)[C@H](CC(=O)O)NC(=O)CC[C@H](NC(=O)c4ccc(NCc5cnc6nc(N)[nH]c(=O)c6n5)cc4)C(=O)O)C(=O)O)c(OC)cc3C(=O)N2C1` (stereo partly drawn) [Conjugate 1] had a cures in the series with KB tumor (0.5 μmol/kg) of 100%. For the same molecule, the “relative binding affinity toward the folate receptor, fold lower than that of folic acid” value on folate receptor was ~4.2 fold. The “DNA crosslinking by reduced form” value in the series with Calf thymus DNA (CT-DNA) (treated with DTT) is reported as “crosslink with DNA”. Further, in the series on Calf thymus DNA (CT-DNA) (without DTT), the “DNA crosslinking by intact conjugate” value was “not able to crosslink DNA”. The “cytotoxic activity in the presence of an excess of free folate” value in the series with MDA-MB231 cells was “significant reduction in activity”.
Turning to `CC(=O)O[C@H]1C(=O)[C@@]2(C)[C@H]([C@H](OC(=O)c3ccccc3)[C@]3(O)C[C@H](OC(=O)[C@H](O)[C@@H](NC(=O)c4ccccc4)c4ccccc4)C(C)=C1C3(C)C)[C@]1(OC(C)=O)CO[C@@H]1C[C@@H]2O` [paclitaxel], the partial response subjects in series [1] stood at 0%. In addition, the “tumor size compared to untreated control” value in the series on ST070 ovarian PDX tumors was “did not have decreased tumor size”.
As for `C=C1C[C@H]2C=Nc3cc(OCCCCCOc4cc(N)c(C(=O)N5CC(=C)C[C@H]5C5CCCN5C(=O)OC[C@@H](SSC[C@H](NC(=O)[C@H](CC(=O)O)NC(=O)[C@H](CC(=O)O)NC(=O)[C@H](CCCNC(=N)N)NC(=O)[C@H](CC(=O)O)NC(=O)CC[C@H](NC(=O)c5ccc(NCc6cnc7nc(N)[nH]c(=O)c7n6)cc5)C(=O)O)C(=O)O)C(C)C)cc4OC)c(OC)cc3C(=O)N2C1` (stereo partly drawn) [Conjugate 12], in series [2], the “day on which mice had to be euthanized due to toxicity” value was 40 days. The “PRs (partial responses)” value in the series with KB tumor (0.5 μmol/kg) turned out to be 100%.
Regarding `C=C1C[C@H]2C=Nc3cc(OCCCCCOc4cc5c(cc4OC)C(=O)N4CC(=C)C[C@H]4[C@H](O)N5C(=O)OCCSSC[C@H](NC(=O)[C@H](CC(=O)O)NC(=O)[C@H](CC(=O)O)NC(=O)[C@H](CCCNC(=N)N)NC(=O)[C@H](CC(=O)O)NC(=O)CC[C@H](NC(=O)c4ccc(NCc5cnc6nc(N)[nH]c(=O)c6n5)cc4)C(=O)O)C(=O)O)c(OC)cc3C(=O)N2C1` [Conjugate 3], the “day on which mice had to be euthanized due to toxicity” value in series [2] is 48 days. Also, the complete responses with KB tumor (0.5 μmol/kg) is given as 100%. In addition, the IC50 is 3 nM in the series on KB cells (setting [3]) and 0.039 nM with KB cells (setting [4]).
For `C=C1C[C@H]2C=Nc3cc(OCCCCCOc4cc5c(cc4OC)C(=O)N4CC(=C)C[C@H]4C(=O)N5COC(=O)CCCSSC[C@@H](NC(=O)[C@H](CCC(=O)NC[C@H](O)[C@@H](O)[C@H](O)[C@H](O)CO)NC(=O)[C@@H](CCC(=O)O)NC(=O)[C@H](CCC(=O)NC[C@H](O)[C@@H](O)[C@H](O)[C@H](O)CO)NC(=O)[C@@H](CCC(=O)O)NC(=O)[C@H](CCC(=O)NC[C@H](O)[C@@H](O)[C@H](O)[C@H](O)CO)NC(=O)CC[C@H](NC(=O)c4ccc(NCc5cnc6nc(N)[nH]c(=O)c6n5)cc4)C(=O)O)C(=O)O)c(OC)cc3C(=O)N2C1` [Conjugate 9], the “PRs (partial responses)” value with KB tumor (1 μmol/kg) was found to be 0%. The IC50 is 67 nM in the series on KB cells (setting [3]) and 0.8 nM in the series on KB cells (setting [4]).
In the series with KB tumor (0.5 μmol/kg), `C=C1C[C@H]2C=Nc3cc(OCCCCCOc4cc(N)c(C(=O)N5CC(=C)C[C@H]5C5OCCN5C(=O)OCC(C)(C)SSCCC(=O)NCCNC(=O)CCOCCOCCOCCOCCNC(=O)CCN5C(=O)CC(SC[C@@H](NC(=O)[C@H](CCC(=O)NC[C@H](O)[C@@H](O)[C@H](O)[C@H](O)CO)NC(=O)[C@@H](CCC(=O)O)NC(=O)[C@H](CCC(=O)NC[C@H](O)[C@@H](O)[C@H](O)[C@H](O)CO)NC(=O)[C@@H](CCC(=O)O)NC(=O)[C@H](CCC(=O)NC[C@H](O)[C@@H](O)[C@H](O)[C@H](O)CO)NC(=O)CC[C@H](NC(=O)c6ccc(NCc7cnc8nc(N)[nH]c(=O)c8n7)cc6)C(=O)O)C(=O)O)C5=O)cc4OC)c(OC)cc3C(=O)N2C1` (stereo partly drawn) [Conjugate 6] gave a complete responses of 50% and a cures of 50%. In the series on KB cells (setting [3]), the IC50 stood at 3 nM. Further, in the series with KB cells (setting [4]), the IC50 is 0.048 nM.
Turning to erubulin mesylate, the “TNBC PDX tumor size compared to untreated control” value with TNBC PDX tumor is “did not decrease TNBC PDX tumor size”.
